Laboratory results from patent EP3755703B1, “N-(PHENYL)-2-(PHENYL)PYRIMIDINE-4-CARBOXAMIDE DERIVATIVES AND RELATED COMPOUNDS AS HPK1 INHIBITORS FOR TREATING CANCER” (Incyte Corporation, priority 2018, dated 2019).

Target: T1, HPK1 (Homo sapiens, UniProt Q92918)
T1 construct: purchased SignalChem M23-11G
T1 sequence (Q92918 1-346 limits assumed): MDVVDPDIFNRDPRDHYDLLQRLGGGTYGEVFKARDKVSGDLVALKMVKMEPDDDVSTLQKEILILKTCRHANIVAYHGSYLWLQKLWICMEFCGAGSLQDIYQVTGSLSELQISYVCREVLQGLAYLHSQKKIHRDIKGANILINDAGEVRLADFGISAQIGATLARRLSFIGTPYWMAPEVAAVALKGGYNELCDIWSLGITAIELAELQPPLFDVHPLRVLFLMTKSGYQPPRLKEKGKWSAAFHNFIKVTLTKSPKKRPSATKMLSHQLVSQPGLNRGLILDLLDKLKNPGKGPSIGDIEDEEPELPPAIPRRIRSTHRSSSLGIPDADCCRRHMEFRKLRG
Assay: HPK1 Kinase Binding Assay
Settings: LanthaScreen tracer 222, one hour incubation at 25 °C
Procedure: A stock solution of 1 mM test compound was prepared in DMSO. The compound plate was prepared by 3-fold and 11-point serial dilutions. 0.1 µL of the compound in DMSO was transferred from the compound plate to the white 384 well polystyrene plates. The assay buffer contained 50 mM HEPES, pH 7.5, 0.01% Tween-20, 5 mM MgCl2, 0.01% BSA, and 5 mM DTT. 5 µL of 4 nM active HPK1 (SignalChem M23-11G) prepared in the buffer was added to the plate. The enzyme concentration given was based on the given stock concentration reported by the vender. […] After one hour incubation at 25 °C, the plates were read on a PHERAstar FS plate reader (BMG Labtech). Ki values were determined.

Ki [nM]	SMILES
< 100	COc1cccc(F)c1-c1nccc(C(=O)Nc2cc(F)ccc2N2CCOCC2CO)n1 (centres unmarked) [Example 12, N-(5-Fluoro-2-(3-(hydroxymethyl)morpholino)phenyl)-2-(2-fluoro-6-methoxyphenyl)pyrimidine-4-carboxamide]
< 100	COc1cccc(F)c1-c1nccc(C(=O)Nc2cc(F)ccc2N2CCNC[C@@H]2CO)n1 [Example 11, (R)-N-(5-Fluoro-2-(2-(hydroxymethyl)piperazin-1-yl)phenyl)-2-(2-fluoro-6-methoxyphenyl)pyrimidine-4-carboxamide]
< 100	COc1cccc(F)c1-c1nccc(C(=O)Nc2cc(F)c(-c3ccc(CO)nc3)cc2N2C[C@@H]3C[C@H]2CN3)n1 [Example 20, N-(2-((1S,4S)-2,5-Diazabicyclo[2.2.1]heptan-2-yl)-5-fluoro-4-(6-(hydroxymethyl)pyridin-3-yl)phenyl)-2-(2-fluoro-6-methoxyphenyl)pyrimidine-4-carboxamide]
< 100	COc1cccc(F)c1-c1nccc(C(=O)Nc2cc(F)ccc2N2C[C@@H](NC(C)C)C[C@H]2CO)n1 [Example 89, N-(5-Fluoro-2-((2S,4S)-2-(hydroxymethyl)-4-(isopropylamino)pyrrolidin-1-yl)phenyl)-2-(2-fluoro-6-methoxyphenyl)pyrimidine-4-carboxamide]
< 100	CCN1C[C@H]2C[C@@H]1CN2c1ccc(F)cc1NC(=O)c1ccnc(-c2c(F)cccc2OC)n1 [Example 32, N-(2-((1R,4R)-5-Ethyl-2,5-diazabicyclo[2.2.1]heptan-2-yl)-5-fluorophenyl)-2-(2-fluoro-6-methoxyphenyl)pyrimidine-4-carboxamide]
< 100	COc1cccc(F)c1-c1nccc(C(=O)Nc2ccc(-c3cnccc3C#N)cc2N2C[C@@H](N)C[C@H]2C(C)(C)O)n1 [Example 54, N-(2-((2S,4S)-4-Amino-2-(2-hydroxypropan-2-yl)pyrrolidin-1-yl)-4-(4-cyanopyridin-3-yl)phenyl)-2-(2-fluoro-6-methoxyphenyl)pyrimidine-4-carboxamide]
< 100	[2H]C([2H])([2H])Oc1ccc(C#N)c(F)c1-c1nccc(C(=O)Nc2ccc(-c3cnccc3C#N)cc2N2C[C@@H](N)C[C@H]2CO)n1 [Example 74, N-(2-((2S,4S)-4-Amino-2-(hydroxymethyl)pyrrolidin-1-yl)-4-(4-cyanopyridin-3-yl)phenyl)-2-(3-cyano-2-fluoro-6-(methoxy-d3)phenyl)pyrimidine-4-carboxamide]
< 100	COc1cccc(F)c1-c1nccc(C(=O)Nc2ccc(-c3cnccc3C#N)cc2N2CCN3C(=O)OC[C@H]3C2)n1 [Example 103, (R)-N-(4-(4-Cyanopyridin-3-yl)-2-(3-oxotetrahydro-3H-oxazolo[3,4-a]pyrazin-7(1H)-yl)phenyl)-2-(2-fluoro-6-methoxyphenyl)pyrimidine-4-carboxamide]
< 100	COc1cccc(F)c1-c1nccc(C(=O)Nc2ccccc2C2CCCC(N)C2)n1 (centres unmarked) [Example 80, N-(2-(3-Aminocyclohexyl)phenyl)-2-(2-fluoro-6-methoxyphenyl)pyrimidine-4-carboxamide]
< 100	COc1cccc(F)c1-c1nccc(C(=O)Nc2ccc(-c3ccncc3C#N)cc2N2C[C@@H](N)C[C@H]2CO)n1 [Example 41, N-(2-((2S,4S)-4-Amino-2-(hydroxymethyl)pyrrolidin-1-yl)-4-(3-cyanopyridin-4-yl)phenyl)-2-(2-fluoro-6-methoxyphenyl)pyrimidine-4-carboxamide]
< 100	[2H]C([2H])([2H])Oc1ccc(C)c(F)c1-c1nccc(C(=O)Nc2cc(F)ccc2N2C[C@@H](N)C[C@H]2CO)n1 [Example 69, N-(2-((2S,4S)-4-Amino-2-(hydroxymethyl)pyrrolidin-1-yl)-5-fluorophenyl)-2-(2-fluoro-6-(methoxy-d3)-3-methylphenyl)pyrimidine-4-carboxamide]
< 100	COc1cccc(F)c1-c1nccc(C(=O)Nc2ccc(-c3cnccc3C#N)cc2N2C[C@@H]3C[C@@]2(CO)CN3)n1 [Example 57, N-(4-(4-Cyanopyridin-3-yl)-2-((1S,4S)-1-(hydroxymethyl)-2,5-diazabicyclo[2.2.1]heptan-2-yl)phenyl)-2-(2-fluoro-6-methoxyphenyl)pyrimidine-4-carboxamide]
< 100	COc1cccc(F)c1-c1nccc(C(=O)Nc2cc(F)c(CN3CCOCC3)cc2N2C[C@@H]3C[C@H]2CN3)n1 [Example 30, N-(2-((1S,4S)-2,5-Diazabicyclo[2.2.1]heptan-2-yl)-5-fluoro-4-(morpholinomethyl)phenyl)-2-(2-fluoro-6-methoxyphenyl)pyrimidine-4-carboxamide]
< 100	COc1cccc(F)c1-c1nccc(C(=O)Nc2ccc(C3CCOCC3)cc2N2C[C@@H](N)C[C@H]2CO)n1 [Example 90, N-(2-((2S,4S)-4-Amino-2-(hydroxymethyl)pyrrolidin-1-yl)-4-(tetrahydro-2H-pyran-4-yl)phenyl)-2-(2-fluoro-6-methoxyphenyl)pyrimidine-4-carboxamide]
< 100	N#Cc1ccncc1-c1ccc(NC(=O)c2ccnc(-c3c(F)cccc3Cl)n2)c(N2C[C@@H](N)C[C@H]2CO)c1 [Example 64, N-(2-((2S,4S)-4-Amino-2-(hydroxymethyl)pyrrolidin-1-yl)-4-(4-cyanopyridin-3-yl)phenyl)-2-(2-chloro-6-fluorophenyl)pyrimidine-4-carboxamide]
< 100	COc1cccc(F)c1-c1nccc(C(=O)Nc2cc(CO)ccc2N2C[C@H]3C[C@@H]2CN3)n1 [Example 36, N-(2-((1R,4R)-2,5-Diazabicyclo[2.2.1]heptan-2-yl)-5-(hydroxymethyl)phenyl)-2-(2-fluoro-6-methoxyphenyl)pyrimidine-4-carboxamide]
< 100	COc1cccc(F)c1-c1nccc(C(=O)Nc2cc(F)c(C(C)C)cc2N2CCN[C@H](CO)C2)n1 [Example 110, (S)-N-(5-Fluoro-2-(3-(hydroxymethyl)piperazin-1-yl)-4-isopropylphenyl)-2-(2-fluoro-6-methoxyphenyl)pyrimidine-4-carboxamide]
< 100	COc1cccc(F)c1-c1nccc(C(=O)Nc2ccc(-c3c(C)nn(C)c3C)nc2N2C[C@@H](N)C[C@H]2CO)n1 [Example 65, N-(2-((2S,4S)-4-Amino-2-(hydroxymethyl)pyrrolidin-1-yl)-6-(1,3,5-trimethyl-1H-pyrazol-4-yl)pyridin-3-yl)-2-(2-fluoro-6-methoxyphenyl)pyrimidine-4-carboxamide]
100 to 500	COc1cccc(F)c1-c1nccc(C(=O)Nc2cc(C#N)ccc2N2C[C@H]3C[C@@H]2CN3)n1 [Example 37, N-(2-((1R,4R)-2,5-Diazabicyclo[2.2.1]heptan-2-yl)-5-cyanophenyl)-2-(2-fluoro-6-methoxyphenyl)pyrimidine-4-carboxamide]
< 100	COc1cccc(F)c1-c1nccc(C(=O)Nc2ccc(N3CCC3)cc2N2C[C@@H]3C[C@H]2CN3)n1 [Example 38, N-(4-(Azetidin-1-yl)-2-((1S,4S)-2,5-diazabicyclo[2.2.1]heptan-2-yl)phenyl)-2-(2-fluoro-6-methoxyphenyl)pyrimidine-4-carboxamide]
< 100	CCOc1cccc(F)c1-c1nccc(C(=O)Nc2ccc(-c3cnccc3C#N)cc2N2C[C@@H](N)C[C@H]2CO)n1 [Example 98, N-(2-((2S,4S)-4-Amino-2-(hydroxymethyl)pyrrolidin-1-yl)-4-(4-cyanopyridin-3-yl)phenyl)-2-(2-ethoxy-6-fluorophenyl)pyrimidine-4-carboxamide]
< 100	COc1cccc(F)c1-c1nccc(C(=O)Nc2cc(F)c(CO)cc2N2C[C@@H]3C[C@H]2CN3)n1 [Example 17, N-(2-((1S,4S)-2,5-Diazabicyclo[2.2.1]heptan-2-yl)-5-fluoro-4-(hydroxymethyl)phenyl)-2-(2-fluoro-6-methoxyphenyl)pyrimidine-4-carboxamide]
< 100	COc1cccc(F)c1-c1nccc(C(=O)Nc2ccc(-c3cnccc3C#N)cc2N2CC3(CC3)NC[C@H]2CO)n1 [Example 52, (S)-N-(4-(4-Cyanopyridin-3-yl)-2-(6-(hydroxymethyl)-4,7-diazaspiro[2.5]octan-7-yl)phenyl)-2-(2-fluoro-6-methoxyphenyl)pyrimidine-4-carboxamide]
< 100	COC[C@@H]1CCN1c1ccc(NC(=O)c2ccnc(-c3c(F)cccc3OC)n2)c(N2C[C@@H]3C[C@H]2CN3)c1 [Example 39, N-(2-((1S,4S)-2,5-Diazabicyclo[2.2.1]heptan-2-yl)-4-((S)-2-(methoxymethyl)azetidin-1-yl)phenyl)-2-(2-fluoro-6-methoxyphenyl)pyrimidine-4-carboxamide]
< 100	N#Cc1ccncc1-c1ccc(NC(=O)c2ccnc(-c3c(F)cccc3OC(F)F)n2)c(N2C[C@@H](N)C[C@H]2CO)c1 [Example 95, N-(2-((2S,4S)-4-Amino-2-(hydroxymethyl)pyrrolidin-1-yl)-4-(4-cyanopyridin-3-yl)phenyl)-2-(2-(difluoromethoxy)-6-fluorophenyl)pyrimidine-4-carboxamide]
< 100	COc1cccc(F)c1-c1nccc(C(=O)Nc2ccc(-c3cnccc3C#N)cc2N2CCN(CCO)CC2)n1 [Example 109, N-(4-(4-Cyanopyridin-3-yl)-2-(4-(2-hydroxyethyl)piperazin-1-yl)phenyl)-2-(2-fluoro-6-methoxyphenyl)pyrimidine-4-carboxamide]
